# What was measured:
# SAPK/JNK = assay: Western blot of SAPK/JNK pathway activation in H1703 cells; type: cell-based, human
# ATF3 = assay: Western blot of ATF3 protein in H1703 cells; type: cell-based, human
# H1703 cells = assay: H1703 non-small cell lung cancer xenograft model; type: in vivo, athymic NCr-nu/nu mice; details: three times a week for 3 weeks
# PARP = assay: Western blot of PARP cleavage; type: cell-based, human; details: H1703 cells, 1 µM, 1, 4, or 6 h
# H1703 xenograft tumors = assay: H&E staining and immunohistochemistry of xenograft tumors; type: in vivo, athymic NCr-nu/nu mice
smiles,measurement,setting,value
"O=C1c2ccccc2-c2n[nH]c3cccc1c23 [1,9-pyrazoloanthrone, reference compound]",effect on 1-induced activation of ATF2 and c-jun,"SAPK/JNK; pretreatment 50 µM, 30 min",inhibited
same,effect on 1-induced ATF3 upregulation,"ATF3; pretreatment 50 µM, 30 min",partially blocked
"CCOC(=O)N1CCN(/[N+]([O-])=N/Oc2ccc([N+](=O)[O-])cc2[N+](=O)[O-])CC1 [Compound 1, O^2-(2,4-dinitrophenyl) 1-[(4-ethoxycarbonyl)piperazin-1-yl]diazen-1-ium-1,2-diolate]",growth of H1703 cells in vivo,H1703 cells; 6 µmol/kg i.v.,significantly reduced growth
same,SAPK/JNK activation (phosphorylation),SAPK/JNK,caused SAPK/JNK activation
same,time to detection of SAPK/JNK phosphorylation,SAPK/JNK; 1 µM,≤ 30 min
same,cleavage of PARP,PARP,resulted in cleavage of PARP
same,"ATF3 protein level in tumors, immunohistochemistry",H1703 xenograft tumors; 6 µmol/kg i.v.,upregulation in ATF3 protein level
same,"P-SAPK/JNK in tumors, immunohistochemistry",H1703 xenograft tumors; 6 µmol/kg i.v.,phosphorylation of SAPK/JNK
same,"tissue death in tumors, H&E staining",H1703 xenograft tumors; 6 µmol/kg i.v.,significant tissue death
same,ATF3 protein expression,ATF3; 1 µM,induced
"CCOC(=O)N1CCN(/[N+]([O-])=N/Oc2cc(C)c([N+](=O)[O-])cc2[N+](=O)[O-])CC1 [Compound 6, O^2-(2,4-Dinitro-5-methylphenyl) 1-[(4-Ethoxycarbonyl)piperazin-1-yl]diazen-1-ium-1,2-diolate]",growth of H1703 cells in vivo,H1703 cells; 8 µmol/kg i.v.,did not result in reduction in H1703 tumor growth in vivo
same,"ATF3 protein level in tumors, immunohistochemistry",H1703 xenograft tumors; 8 µmol/kg i.v.,comparable to that of the control
same,"P-SAPK/JNK in tumors, immunohistochemistry",H1703 xenograft tumors; 8 µmol/kg i.v.,did not stain for P-SAPK/JNK
"O=S(=O)(O)c1cc(O)c(O)c(S(=O)(=O)O)c1 [Tiron, reference compound]",effect on SAPK/JNK phosphorylation resulting from 1 or 2,"SAPK/JNK; pretreatment 10 mM for 1 h, then 30-min incubation with 1 or 2",attenuated SAPK/JNK phosphorylation

# Source: PMC3422893 (Journal of medicinal chemistry, 2011)
